Results published in patent US7935674B2, “Indole derivatives” (Mitsubishi Tanabe Pharma Corporation, priority 2005, dated 2011).
Like-named read-outs stand apart in the source and are kept apart here.

What was measured:
[1] = test system: Sprague-Dawley (SD) rats; assay: Urinary glucose excretion test in rats; format: in vivo, rat; details: male SD rats; 30 mg/kg by oral gavage; urine collected for 24 hours; daily amount of glucose excreted in urine per individual
Description: 2. Urinary Glucose Excretion Test in Rats Test Compounds:
Compounds described in the above examples were used for the Urinary glucose excretion test in rats.
6-week-old male Sprague-Dawley (SD) rats were housed in individual metabolic cages with free access to food and water from 2 days prior to the experiment. On the morning of the experiment, rats were administered vehicle (0.2% carboxymethyl cellulose solution containing 0.2% Tween80) or test compounds (30 mg/kg) by oral gavage at a volume of 10 ml/kg. Then, urine of the rat was collected for 24 hours, and the urine volume was measured. Subsequently, the glucose concentration in urine was quantified using the enzymatic assay kit and the daily amount of glucose excreted in urine per individual was calculated.

[2] = target: T1, human SGLT2 (Homo sapiens, UniProt P31639); assay: Assay for SGLT2 inhibition (14C-AMG uptake in CHOK1 cells expressing human SGLT2); format: cell-based
T1 construct: expressed in transfected cells; host or cells: CHOK1 (Chinese hamster ovary) cells, kept under Geneticin selection
T1 sequence (P31639 1-672): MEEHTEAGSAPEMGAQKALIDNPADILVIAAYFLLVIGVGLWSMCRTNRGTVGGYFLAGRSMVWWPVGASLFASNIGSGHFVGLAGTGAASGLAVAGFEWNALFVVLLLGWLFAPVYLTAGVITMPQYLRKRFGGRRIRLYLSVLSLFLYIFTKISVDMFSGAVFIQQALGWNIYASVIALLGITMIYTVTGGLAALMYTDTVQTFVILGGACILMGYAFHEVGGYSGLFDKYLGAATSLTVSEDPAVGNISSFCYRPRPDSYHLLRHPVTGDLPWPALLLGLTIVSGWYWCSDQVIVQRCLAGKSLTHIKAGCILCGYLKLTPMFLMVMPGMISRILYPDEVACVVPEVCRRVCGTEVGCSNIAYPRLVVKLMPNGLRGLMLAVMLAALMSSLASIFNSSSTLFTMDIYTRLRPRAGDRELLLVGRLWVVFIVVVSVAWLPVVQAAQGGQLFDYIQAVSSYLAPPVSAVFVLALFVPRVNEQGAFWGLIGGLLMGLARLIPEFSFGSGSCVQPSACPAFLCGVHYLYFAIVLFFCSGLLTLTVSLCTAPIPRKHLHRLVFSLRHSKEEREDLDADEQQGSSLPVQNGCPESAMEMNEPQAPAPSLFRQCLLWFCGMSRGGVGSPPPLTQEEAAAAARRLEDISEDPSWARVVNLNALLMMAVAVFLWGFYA
Description: 1. Assay for SGLT2 Inhibition
Compounds described in the above examples were used for the SGLT2 inhibition assay.
CHOK1 cells expressing human SGLT2 were seeded in 24-well plates at a density of 400,000 cells/well in F-12 nutrient mixture (Ham's F-12) containing 10% fetal bovine serum, 400 μg/ml Geneticin, 50 units/ml sodium penicillin G (Gibco-BRL) and 50 μg/ml streptomycin sulfate. After 2 days of culture at 37° C. in a humidified atmosphere containing 5% CO2, cells were washed once with the assay buffer (137 mM NaCl, 5 mM KCl, 1 mM CaCl2, 1 mM MgCl2, 50 mM Hepes, and 20 mM Tris, pH 7.4) and incubated with 250 μl of the buffer containing test compounds for 10 min at 37° C. Test compounds were dissolved in DMSO. The final concentration of DMSO was 0.5%. The transport reaction was initiated by addition of 50 μl [^14C]-methyl-α-D-glucopyranoside (^14C-AMG) solution (final concentration, 0.5 mM). After incubation for 2 hours at 37° C., the uptake was stopped by aspiration of the incubation mixture, the cells were washed three times with ice-cold PBS. Then, cells were solubilized with 0.3 N NaOH and aliquots were taken for determination of radioactivity by a liquid scintillation counter. Nonspecific AMG uptake was defined as that which occurred in the presence of 100 μM of phlorizin, a specific inhibitor of sodium-dependent glucose cotransporter. Specific uptake was normalized for the protein concentrations measured by the method of Bradford. The 50% inhibitory concentration (IC50) values were calculated from dose-response curves by least square method.

[3] = CHOK1 cells expressing human SGLT2, 14C-AMG uptake, 0.5 mM, 2 hours at 37° C., read-out: IC50

Compound: OC[C@H]1O[C@@H](n2cc(Cc3ccc4occc4c3)c3c(Br)cccc32)[C@H](O)[C@@H](O)[C@@H]1O [Example 43, 3-(Benzo[b]furan-5-yl-methyl)-4-bromo-1-(β-D-glucopyranosyl)-indole]
- Urinary glucose [1]: A (A≧2400 mg)
- IC50 [2, 3]: 8.4 nM

Compound: OC[C@H]1O[C@@H](n2cc(Cc3ccc4occc4c3)c3c(Cl)c(F)ccc32)[C@H](O)[C@@H](O)[C@@H]1O [Example 34, 3-(Benzo[b]furan-5-yl-methyl)-4-chloro-5-fluoro-1-(β-D-gluco-pyranosyl)indole]
- Urinary glucose [1]: B (2400 mg>B≧2000 mg)
- IC50 [2, 3]: 11 nM

Compound: CCOc1ccc(Cc2cn([C@@H]3O[C@H](CO)[C@@H](O)[C@H](O)[C@H]3O)c3cccc(F)c23)cc1 [Example 8, 3-(4-Ethoxyphenylmethyl)-4-fluoro-1-(β-D-glucopyranosyl)-indole]
- Urinary glucose [1]: A (A≧2400 mg)
- IC50 [2, 3]: 4.8 nM

Compound: OC[C@H]1O[C@@H](n2cc(Cc3ccc4occc4c3)c3c(Cl)cccc32)[C@H](O)[C@@H](O)[C@@H]1O [Example 15, 3-(Benzo[b]furan-5-yl-methyl)-4-chloro-1-(β-D-glucopyranosyl)indole]
- Urinary glucose [1]: A (A≧2400 mg)
- IC50 [2, 3]: 3.3 nM

Compound: CCc1ccc(Cc2cn([C@@H]3O[C@H](CO)[C@@H](O)[C@H](O)[C@H]3O)c3cccc(F)c23)cc1 [Example 2, 3-(4-Ethylphenylmethyl)-4-fluoro-1-(β-D-glucopyranosyl)-indole]
- Urinary glucose [1]: A (A≧2400 mg)
- IC50 [2, 3]: 5.2 nM

Compound: Cc1cccc2c1c(Cc1ccc(Br)cc1)cn2[C@@H]1O[C@H](CO)[C@@H](O)[C@H](O)[C@H]1O [Example 38, 3-(4-Bromophenylmethyl)-4-methyl-1-(β-D-glucopyranosyl)-indole]
- Urinary glucose [1]: B (2400 mg>B≧2000 mg)
- IC50 [2, 3]: 12 nM

Compound: OC[C@H]1O[C@@H](n2cc(Cc3ccc(Cl)cc3)c3c(Cl)cccc32)[C@H](O)[C@@H](O)[C@@H]1O [Example 6, 4-Chloro-3-(4-chlorophenylmethyl)-1-(β-D-glucopyranosyl)-indole]
- Urinary glucose [1]: A (A≧2400 mg)
- IC50 [2, 3]: 9.8 nM

Compound: OC[C@H]1O[C@@H](n2cc(Cc3ccc(Br)cc3)c3c(Br)cccc32)[C@H](O)[C@@H](O)[C@@H]1O [Example 41, 4-Bromo-3-(4-bromophenylmethyl)-1-(β-D-glucopyranosyl)indole]
- Urinary glucose [1]: B (2400 mg>B≧2000 mg)
- IC50 [2, 3]: 12 nM

Compound: OC[C@H]1O[C@@H](n2cc(Cc3ccc4occc4c3)c3c(F)cccc32)[C@H](O)[C@@H](O)[C@@H]1O [Example 20, 3-(Benzo[b]furan-5-yl-methyl)-4-fluoro-1-(β-D-glucopyranosyl) indole]
- Urinary glucose [1]: A (A≧2400 mg)
- IC50 [2, 3]: 5.7 nM

Compound: OC[C@H]1O[C@@H](n2cc(Cc3ccc(OC(F)(F)F)cc3)c3c(Cl)cccc32)[C@H](O)[C@@H](O)[C@@H]1O [Example 29, 4-Chloro-3-(4-(trifluoromethoxy)phenylmethyl)-1-(β-D-gluco-pyranosyl)indole]
- Urinary glucose [1]: B (2400 mg>B≧2000 mg)
- IC50 [2, 3]: 9.6 nM

Compound: OC[C@H]1O[C@@H](n2cc(Cc3ccc(I)cc3)c3c(Cl)c(F)ccc32)[C@H](O)[C@@H](O)[C@@H]1O [Example 37, 4-Chloro-5-fluoro-3-(4-iodophenylmethyl)-1-(β-D-gluco-pyranosyl)indole]
- Urinary glucose [1]: B (2400 mg>B≧2000 mg)
- IC50 [2, 3]: 14 nM

Compound: OC[C@H]1O[C@@H](n2cc(Cc3ccc4occc4c3)c3c(Cl)cc(Cl)cc32)[C@H](O)[C@@H](O)[C@@H]1O [Example 32, 3-(Benzo[b]furan-5-yl-methyl)-4,6-dichloro-1-(β-D-gluco-pyranosyl)indole]
- Urinary glucose [1]: B (2400 mg>B≧2000 mg)
- IC50 [2, 3]: 7.5 nM

Compound: Cc1cccc2c1c(Cc1ccc(C3CC3)cc1)cn2[C@@H]1O[C@H](CO)[C@@H](O)[C@H](O)[C@H]1O [Example 47, 3-(4-Cyclopropylphenylmethyl)-4-methyl-1-(β-D-gluco-pyranosyl)indole]
- Urinary glucose [1]: A (A≧2400 mg)
- IC50 [2]: 1.6 nM

Compound: OC[C@H]1O[C@@H](n2cc(Cc3ccc(OC(F)F)cc3)c3c(Cl)cccc32)[C@H](O)[C@@H](O)[C@@H]1O [Example 31, 4-Chloro-3-(4-(difluoromethoxy)phenylmethyl)-1-(β-D-gluco-pyranosyl)indole]
- Urinary glucose [1]: A (A≧2400 mg)
- IC50 [2, 3]: 2.6 nM

Compound: OC[C@H]1O[C@@H](n2cc(Cc3ccc(Cl)cc3)c3c(Br)cccc32)[C@H](O)[C@@H](O)[C@@H]1O [Example 44, 4-Bromo-3-(4-chlorophenylmethyl)-1-(β-D-glucopyranosyl)indole]
- Urinary glucose [1]: B (2400 mg>B≧2000 mg)
- IC50 [2, 3]: 20 nM

Compound: OC[C@H]1O[C@@H](n2cc(Cc3ccc(OCCCl)cc3)c3c(F)cccc32)[C@H](O)[C@@H](O)[C@@H]1O [Example 13, 3-(4-(2-Chloroethyloxy)phenylmethyl)-4-fluoro-1-(β-D-gluco-pyranosyl)indole]
- Urinary glucose [1]: B (2400 mg>B≧2000 mg)
- IC50 [2, 3]: 6 nM

Compound: OC[C@H]1O[C@@H](n2cc(Cc3ccc(O)cc3)c3c(Cl)cccc32)[C@H](O)[C@@H](O)[C@@H]1O [Example 46, 4-Chloro-3-(4-hydroxyphenylmethyl)-1-(β-D-glucopyranosyl)-indole]
- Urinary glucose [1]: A (A≧2400 mg)
- IC50 [2, 3]: 2.4 nM

Compound: CCOc1ccc(Cc2cn([C@@H]3O[C@H](CO)[C@@H](O)[C@H](O)[C@H]3O)c3cccc(Cl)c23)cc1 [Example 3, 4-Chloro-3-(4-ethoxyphenylmethyl)-1-(β-D-glucopyranosyl)-indole]
- Urinary glucose [1]: B (2400 mg>B≧2000 mg)
- IC50 [2, 3]: 3.5 nM

Compound: OC[C@H]1O[C@@H](n2cc(Cc3ccc(Br)cc3)c3c(Cl)cccc32)[C@H](O)[C@@H](O)[C@@H]1O [Example 14, 3-(4-Bromophenylmethyl)-4-chloro-1-(β-D-glucopyranosyl)-indole]
- Urinary glucose [1]: A (A≧2400 mg)
- IC50 [2, 3]: 8.1 nM

Compound: OC[C@H]1O[C@@H](n2cc(Cc3ccc(OC(F)F)cc3)c3c(F)cccc32)[C@H](O)[C@@H](O)[C@@H]1O [Example 26, 3-(4-(Difluoromethoxy)phenylmethyl)-4-fluoro-1-(β-D-gluco-pyranosyl)indole]
- Urinary glucose [1]: A (A≧2400 mg)
- IC50 [2, 3]: 11 nM

Compound: OC[C@H]1O[C@@H](n2cc(Cc3ccc(F)cc3)c3c(Cl)cccc32)[C@H](O)[C@@H](O)[C@@H]1O [Example 27, 4-Chloro-3-(4-fluorophenylmethyl)-1-(β-D-glucopyranosyl)-indole]
- Urinary glucose [1]: B (2400 mg>B≧2000 mg)
- IC50 [2, 3]: 16 nM

Compound: OC[C@H]1O[C@@H](n2cc(Cc3ccc(Br)s3)c3c(Cl)cccc32)[C@H](O)[C@@H](O)[C@@H]1O [Example 7, 3-(5-Bromo-2-thienylmethyl)-4-chloro-1-(β-D-glucopyranosyl)-indole]
- Urinary glucose [1]: B (2400 mg>B≧2000 mg)
- IC50 [2, 3]: 5 nM

Compound: Cc1cccc2c1c(Cc1ccc3occc3c1)cn2[C@@H]1O[C@H](CO)[C@@H](O)[C@H](O)[C@H]1O [Example 40, 3-(Benzo[b]furan-5-yl-methyl)-4-methyl-1-(β-D-glucopyranosyl)indole]
- Urinary glucose [1]: B (2400 mg>B≧2000 mg)
- IC50 [2, 3]: 6.2 nM

Compound: Cc1cccc2c1c(Cc1ccc(I)cc1)cn2[C@@H]1O[C@H](CO)[C@@H](O)[C@H](O)[C@H]1O [Example 39, 3-(4-Iodophenylmethyl)-4-methyl-1-(β-D-glucopyranosyl)indole]
- Urinary glucose [1]: B (2400 mg>B≧2000 mg)
- IC50 [2, 3]: 3.6 nM
